Results: USRE30413E, “Bleomycinic acid and process for preparing thereof” (Zaidan Hojin Biseibutsu Kagaku Kenkyu Kai, priority 1971, dated 1980)
Where two headings read alike, the source gives them in different places. Each block holds one compound with its values, some of them ahead of it.

Assays:
Mycobacterium 607 = experiment: cup test, antimicrobial activity to Mycobacterium 607; type: cell-based; settings: standard bleomycin A2 = 1000 μ/mg
From the text: The endpoint of the hydrolysis reaction can be determined by a reaction in antimicrobial activity of the bleomycin substrate as measured by conventional cup tests using Mycobacterium 607, or by a change in the Rf value during thin layer chromatography.

[1] = solubility of the hydrochloride in solvents; type: physicochemical
HeLa (S3 bb cell line) = settings: third day after addition
From the text: wherein the inhibitory effect= [formula] Co: relative number of cell on the first day t3 : relative number of cell on the third day after the addition of a bleomycin (3 mcg/ml in final)
C3 : relative number of cell in negative control on the third day

ICR-JCL male mice = settings: for Total, degree of fibrosis ++: number of mice with grade ++, fourth Total column; for Total, degree of fibrosis -: number of mice with grade -, first Total column; for Total, degree of fibrosis ±: number of mice with grade ±, second Total column
From the text: The mice were bred for 5 weeks after the final administration and were then dissected. The right and left lungs were observed by microscopic examination.

Compound: Cc1c(N)nc([C@H](CC(N)=O)NC[C@H](N)C(N)=O)nc1C(=O)N[C@H](C(=O)N[C@H](C)[C@@H](O)[C@H](C)C(=O)N[C@H](C(=O)NCCc1nc(-c2nc(C(=O)NCCC[S+](C)C)cs2)cs1)[C@@H](C)O)[C@@H](O[C@@H]1O[C@@H](CO)[C@@H](O)[C@H](O)[C@@H]1O[C@H]1O[C@H](CO)[C@@H](O)[C@H](OC(N)=O)[C@@H]1O)c1c[nH]cn1.[Br-] [bleomycin A2, 3-dimethylsulfopropylamino-bleomycin]
antimicrobial activity to Mycobacterium 607 (Mycobacterium 607): 1000 μ/mg

solubility ([1]; acetic acid): sparingly soluble | solubility ([1]; acetone): insoluble | solubility ([1]; dimethylsulfoxide): sparingly soluble | solubility ([1]; ethanol): insoluble | solubility ([1]; ether): insoluble | solubility ([1]; ethyl acetate): insoluble | solubility ([1]; methanol): sparingly soluble | solubility ([1]; water): soluble
Compound: hydrochloride of bleomycinic acid

Compound: benzylamino-bleomycin
Inhibitory effect (HeLa (S3 bb cell line); 1.5 mcg/ml): 38 | Inhibitory effect (HeLa (S3 bb cell line); 3 mcg/ml): 73 | Inhibitory effect (HeLa (S3 bb cell line); 6 mcg/ml): 92

Compound: Cc1c(N)nc([C@H](CC(N)=O)NC[C@H](N)C(N)=O)nc1C(=O)N[C@H](C(=O)N[C@H](C)[C@@H](O)[C@H](C)C(=O)N[C@H](C(=O)NCCc1nc(-c2nc(C(=O)NCCCCN=C(N)N)cs2)cs1)[C@@H](C)O)[C@@H](O[C@@H]1O[C@@H](CO)[C@@H](O)[C@H](O)[C@@H]1O[C@H]1O[C@H](CO)[C@@H](O)[C@H](OC(N)=O)[C@@H]1O)c1cnc[nH]1 [bleomycin B2, 4-guanidinobutylamino-bleomycin]
Total, degree of fibrosis ++ (ICR-JCL male mice; lung L): 1 | Total, degree of fibrosis - (ICR-JCL male mice; lung L): 5 | Total, degree of fibrosis ± (ICR-JCL male mice; lung L): 1 | Total, degree of fibrosis ++ (ICR-JCL male mice; lung R): 0 | Total, degree of fibrosis - (ICR-JCL male mice; lung R): 4 | Total, degree of fibrosis ± (ICR-JCL male mice; lung R): 3 | Inhibitory effect (HeLa (S3 bb cell line); 1.5 mcg/ml): 33 | Inhibitory effect (HeLa (S3 bb cell line); 3 mcg/ml): 64 | Inhibitory effect (cell culture of Yoshida; 0.625 mcg/ml): 8.6 | Inhibitory effect (cell culture of Yoshida; 1.25 mcg/ml): 34.0 | Inhibitory effect (cell culture of Yoshida; 2.5 mcg/ml): 56.0
